Laboratory results taken from patent US10071042B2, “External dermatological agent for anti-ageing” (Hayashibara Co., Ltd., priority 2014, dated 2018).
Marks after values point to notes of the source that are not given here.

Experiments:
[1] = system: normal human epidermal keratinocytes; test: Production level of cornified envelope, absorbance 310 nm (Experiments 1-2 and 7); assay type: cell-based; conditions: for Production level (%) of cornified envelope: control = 100%
Procedure: Normal human epidermal keratinocytes were cultured similarly as in Experiment 1-1, except for adding the test substances listed in Table 2 at prescribed concentrations to the cells. The resulting cultured cells were washed once with phosphate buffered saline (PBS), followed by scrapping off the cells adhered to each culture plate by adding 0.5 mL of PBS to each well of the plates. The cell suspensions thus obtained were added with 10% sodium lauryl sulfate solution in a volume of ¼ of each of the suspension volumes, followed by stirring and freezing the resulting mixtures at −80° C. After thawing, the resulting mixtures were centrifuged at 12,000×g for 15 min, followed by collecting the cell precipitates which were then washed once with phosphate buffered saline containing 2% sodium lauryl sulfate. The resulting mixtures were centrifuged at 12,000×g for 15 min, followed by collecting the cells and suspending the collected cells with phosphate buffered saline containing 2% sodium lauryl sulfate and 20 mM dithiothreitol. The resulting cell suspensions were boiled in a boiling water bath for one hour and measured for absorbance at a wavelength of 310 nm to determine the production level of cornified envelope for each test system added with any of the test substances. A control system was provided similarly as above except for not adding any one of the test substances to the system, and determined for absorbance at a wavelength of 310 nm similarly as in the above to be regarded as 100%. The production level of cornified envelope for each test substance was relatively evaluated based on the following equation. Equation: Production level of cornified envelope (Relative value (%))=[(Absorbance of a sample with any one of test substances)/(Absorbance of Control)]×100
The experiment was repeated three times, and the data was subjected to the Dunnett's multiple comparisons with Control. The symbol “*” means a level of significance of p<0.01.
Except for adding the test substances listed in Tables 8 and 9 at respective concentrations shown in the tables, experiments were respectively conducted in accordance with the methods in Experiments 1-2 and 1-3 disclosed in the specification to examine the effect of the combination use of epigallocatechin gallate, which is used as an antioxidant for cosmetics, and sodium adenosine N1-oxide 5′-phosphate on the action of accelerating the cornified-envelope production and the action of enhancing the transglutaminase activity of sodium adenosine N1-oxide 5′-phosphate. A control system was provided and similarly treated as above except for not adding any test substance and was determined for both the increase rates of cornified-envelope production level and the transglutaminase activity, based on the following equations. Equation: Increase rate of cornified envelope production level (%)={[(Absorbance of a sample with any one of test substances)/(Absorbance of control)]×100}−100 Equation: Increase rate of transglutaminase (%)={[(Absorbance of a sample with any one of test substances)/(Absorbance of control)]×100}−100

matrix metalloprotease-1 = test: Matrix metalloprotease-1 production of NHDF after IL-1β, ELISA (Experiments 5 and 9); assay type: cell-based, human; conditions: for Production level of matrix metalloprotease-1 (%): human IL-1β 1 ng/ml, control = 100%
Procedure: Normal human dermal fibroblasts (NHDF), which had been suspended in a Dulbecco's Modified Eagle Medium supplemented with 10% fetal calf serum to give a concentration of 2.5×10^5 cells/mL, were placed in 96-well microplates by 0.1 mL/well and cultured until reaching a confluent state over the bottom of each well. Thereafter, the medium in each well was replaced with a fresh serum-free culture medium and culture for another 24 hours, added with any one of the test substances in Table 6 at each concentration shown in the table, and cultured for additional 24 hours. Then, the resulting cell cultures were added with human IL-1β to give a final concentration of 1 ng/ml, followed by culturing the cells for another 24 hours. After completion of the culture, matrix metalloprotease-1 in the supernatant in each well was detected with an enzyme-linked immuno sorbent assay (ELISA), commercialized by R & D Systems, Inc., MN, USA, developed coloration with tetramethylbenzidine, and measured for absorption at a wavelength of 450 nm. A control system was provided similarly as above except for not adding any test substance, and determined for the activity of matrix metalloprotease-1 similarly as in the above to be regarded as 100%. The production level of matrix metalloprotease-1 for each test substance was comparatively evaluated based on the following equation. Equation: Production level of matrix metalloprotease-1 (relative value (%))=[(Absorbance of a sample with any one of test substances)/(Absorbance of control)]×100
The experiment was repeated three times, and the data were compared to that of control with the Dunnett's multiple comparisons test. The symbol “*” means a level of significance of p<0.01.
Except for adding the test substances listed in Table 12 at respective concentrations shown in the table, experiments were respectively conducted in accordance with the methods in Experiment 5 disclosed in the specification to examine the effect of the combination use with ascorbic acid 2-glucoside used as a skin whitener in cosmetics on the action of anti-wrinkles by analogues of adenosine N1-oxide 5′-phosphate. A control system was provided and similarly treated as above except for not adding any test substance. The reduction rate of the production level of matrix metalloprotease-1 against that of control based on the following equation. Equation: Reduction rate of the production level of matrix metalloprotease−1(%)=100−[(Absorbance of a sample with any one of test substances)/(Absorbance of control)]×100

[2] = system: normal human dermal fibroblasts (NHDF); test: Number of cells, Alamar Blue (Experiment 4); assay type: cell-based; conditions: control = 100%
Procedure: To confirm cell proliferation under the above conditions tested, normal human dermal fibroblasts (NHDF), which had been suspended in a Dulbecco's Modified Eagle Medium supplemented with 10% fetal calf serum to give a cell concentration of 2.5×10^5 cells/mL, were placed in 96-well microplates by 0.1 mL/well and cultured for one day. The resulting cells were washed with Dulbecco's phosphate buffered saline and cultured for another two days in a Dulbecco's Modified Eagle Medium supplemented with any one of the test substances in Table 5. The culture supernatants were removed from the microplates, to which were then added 0.2 mL/well of a dilution of “Alamar Blue” diluted with the same culture medium as used in the above by 10 folds to react with the cells at 37° C. for two hours, followed by measuring the fluorescent intensity of the cells at an excitation wavelength of 544 nm and a fluorescent wavelength of 590 nm and obtaining the variation of the number of cells with the addition of any one of the test substances based on the fluorescent intensity of a control system, which had been treated similarly as in the above except for not adding any of the test substances, being regarded as 100%.
The experiment was repeated three times, and the data was compared to that of control with the Dunnett's multiple comparisons test. The symbol “*” means a level of significance of p<0.01.

## 3′-α-Glucosyladenosine [reference compound]
[1]; 800 μM
  Production level (%) of cornified envelope: 104.2%
Matrix metalloprotease-1; 200 μM
  Production level of matrix metalloprotease-1 (%): 86.6%
Matrix metalloprotease-1; 400 μM
  Production level of matrix metalloprotease-1 (%): 87.1%
Matrix metalloprotease-1; 800 μM
  Production level of matrix metalloprotease-1 (%): 98.7%

## 3′-α-glucosyl adenosine N1-oxide [3′-α-Glucosyladenosine N1-oxide]
[1]; 200 μM
  Production level (%) of cornified envelope: 141.4* %
Matrix metalloprotease-1; 200 μM
  Production level of matrix metalloprotease-1 (%): 78.7* %
Matrix metalloprotease-1; 400 μM
  Production level of matrix metalloprotease-1 (%): 75.5* %
Matrix metalloprotease-1; 800 μM
  Production level of matrix metalloprotease-1 (%): 68.6* %

## 5′-α-Glucosyladenosine [reference compound]
Matrix metalloprotease-1; 200 μM
  Production level of matrix metalloprotease-1 (%): 89.9%
Matrix metalloprotease-1; 400 μM
  Production level of matrix metalloprotease-1 (%): 94.3%
Matrix metalloprotease-1; 800 μM
  Production level of matrix metalloprotease-1 (%): 87.7%

## 5′-α-glucosyl adenosine N1-oxide [5′-α-Glucosyladenosine N1-oxide]
[1]; 600 μM
  Production level (%) of cornified envelope: 148.8* %
Matrix metalloprotease-1; 200 μM
  Production level of matrix metalloprotease-1 (%): 85.4* %
Matrix metalloprotease-1; 400 μM
  Production level of matrix metalloprotease-1 (%): 83.6* %
Matrix metalloprotease-1; 800 μM
  Production level of matrix metalloprotease-1 (%): 77.0* %

## Nc1ncnc2c1ncn2[C@@H]1O[C@H](COP(=O)(O)O)[C@@H](O)[C@H]1O [Adenosine 5′-phosphate, reference compound]
[1]; 400 μM
  Production level (%) of cornified envelope: 136.5%
[2]; 10 μM
  Number of cells (%): 101.0%
[2]; 40 μM
  Number of cells (%): 102.0%
[2]; 100 μM
  Number of cells (%): 99.0%
Matrix metalloprotease-1; 200 μM
  Production level of matrix metalloprotease-1 (%): 99.5%
Matrix metalloprotease-1; 400 μM
  Production level of matrix metalloprotease-1 (%): 93.3%
Matrix metalloprotease-1; 800 μM
  Production level of matrix metalloprotease-1 (%): 90.3%

## Nc1c2ncn([C@@H]3O[C@H](CO)[C@@H](O)[C@H]3O)c2nc[n+]1[O-] [Adenosine N1-oxide, adenosine N1-oxide]
[1]; 25 μM
  Production level (%) of cornified envelope: 178.7* %
[1]; 25 μM, listed as adenosine N-1 oxide
  Production level (%) of cornified envelope: about 180%
[2]; 1 μM
  Number of cells (%): 99.0%
[2]; 4 μM
  Number of cells (%): 98.0%
[2]; 10 μM
  Number of cells (%): 94.0%
Matrix metalloprotease-1; 5 μM
  Production level of matrix metalloprotease-1 (%): 86.6%
Matrix metalloprotease-1; 10 μM
  Production level of matrix metalloprotease-1 (%): 77.6* %
Matrix metalloprotease-1; 20 μM
  Production level of matrix metalloprotease-1 (%): 31.9* %
Matrix metalloprotease-1; Homo sapiens, NHDF, 2 μM, single use, reduction against control, read-out: Reduction rate of the production level of matrix metalloprotease-1 activity (%)
  inhibition at 2 µM: 10%
Matrix metalloprotease-1; Homo sapiens, NHDF, 5 μM, single use, reduction against control, read-out: Reduction rate of the production level of matrix metalloprotease-1 activity (%)
  inhibition at 5 µM: 13.4%
Matrix metalloprotease-1; Homo sapiens, NHDF, 10 μM, single use, reduction against control, read-out: Reduction rate of the production level of matrix metalloprotease-1 activity (%)
  inhibition at 10 µM: 22.4%

## Nc1ncnc2c1ncn2[C@@H]1O[C@H](CO)[C@@H](O)[C@H]1O [Adenosine, reference compound]
[1]; 400 μM
  Production level (%) of cornified envelope: 101.7%
Matrix metalloprotease-1; 200 μM
  Production level of matrix metalloprotease-1 (%): 88.7%
Matrix metalloprotease-1; 400 μM
  Production level of matrix metalloprotease-1 (%): 93.4%
Matrix metalloprotease-1; 800 μM
  Production level of matrix metalloprotease-1 (%): 85.6%

## Nc1c2ncn([C@@H]3O[C@H](COP(=O)([O-])O)[C@@H](O)[C@H]3O)c2nc[n+]1[O-].[Na+] [Sodium adenosine N1-oxide 5′-phosphate, sodium adenosine N1-oxide 5′-phosphate]
[1]; 15 μM, single use, increase over control
  Increase rate of cornified envelope formation level (%): 2.8%
[1]; 25 μM
  Production level (%) of cornified envelope: 178.7* %
[1]; 25 μM, listed as adenosine N1-oxide 5′-phosphate
  Production level (%) of cornified envelope: about 180%
[2]; 1 μM
  Number of cells (%): 104.0%
[2]; 4 μM
  Number of cells (%): 104.0%
[2]; 10 μM
  Number of cells (%): 101.0%
Matrix metalloprotease-1; 2 μM, single use, reduction against control
  Reduction rate of the production level of matrix metalloprotease-1 activity (%): 2.9%
Matrix metalloprotease-1; 5 μM
  Production level of matrix metalloprotease-1 (%): 96.0%
Matrix metalloprotease-1; 5 μM, single use, reduction against control
  Reduction rate of the production level of matrix metalloprotease-1 activity (%): 4.0%
Matrix metalloprotease-1; 10 μM
  Production level of matrix metalloprotease-1 (%): 83.1* %
Matrix metalloprotease-1; 10 μM, listed as sodium adenosine N1-oxide 5′-phosphate
  Production level of matrix metalloprotease-1 (%): about 80%
Matrix metalloprotease-1; 10 μM, single use, reduction against control
  Reduction rate of the production level of matrix metalloprotease-1 activity (%): 16.9%
Matrix metalloprotease-1; 20 μM
  Production level of matrix metalloprotease-1 (%): 31.8* %
Matrix metalloprotease-1; 20 μM, listed as sodium adenosine N1-oxide 5′-phosphate
  Production level of matrix metalloprotease-1 (%): about 30%
